Laboratory results from PubChem BioAssay (NCI).
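Briefly, cells in 96-well plates were exposed to five compound concentrations for 48 h, and endpoints were estimated by linear interpolation. TGI denotes the concentration required for complete inhibition of growth.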

Legend:
Assay in all cases: inhibition of tumour cell growth, NCI panel, 48 h
[1] = test system: NCI-H522 lung
[2] = test system: TK-10 renal
[3] = test system: COLO 205 colon
[4] = test system: HCC-2998 colon
[5] = test system: CCRF-CEM leukemia
[6] = test system: SK-MEL-5 melanoma
[7] = test system: OVCAR-5 ovarian
[8] = test system: RPMI-8226 leukemia
[9] = test system: NCI-H23 lung
[10] = test system: A498 renal
[11] = test system: OVCAR-8 ovarian
[12] = test system: HOP-62 NSCLC
[13] = test system: SF-539 CNS
[14] = test system: MALME-3M melanoma
[15] = test system: SNB-75 CNS
[16] = test system: NCI/ADR-RES ovarian
[17] = test system: T-47D breast
[18] = test system: HS 578T breast

Row | Structure (SMILES) | TGI [1] | TGI [2] | TGI [3] | TGI [4] | TGI [5] | TGI [6] | TGI [7] | TGI [8] | TGI [9] | TGI [10] | TGI [11] | TGI [12] | TGI [13] | TGI [14] | TGI [15] | TGI [16] | TGI [17] | TGI [18]
1 | Cn1ccc(=NS(=O)(=O)c2ccccc2)cc1 | > 100 µM | > 100 µM | > 100 µM | > 100 µM | > 100 µM | > 100 µM | > 100 µM | > 100 µM | > 100 µM | > 100 µM | > 100 µM | > 100 µM | > 100 µM | > 100 µM | > 100 µM |  |  | 
2 | O=c1[nH]nc(CNc2ccc(Cl)cc2Cl)c2ccccc12 | 41.7 µM | 45.7 µM | > 100 µM | 44.5 µM | > 100 µM | 50.6 µM | > 100 µM | > 100 µM |  | 33.7 µM |  | 43 µM | 41 µM | 49.7 µM | 60.8 µM |  |  | 
3 | CN1N=C2c3ccccc3OC(c3ccccc3)[C@H]2C1c1ccccc1 (stereo partly drawn) | > 100 µM | > 100 µM | > 100 µM | > 100 µM | > 100 µM |  | > 100 µM | > 100 µM | > 100 µM | > 100 µM | > 100 µM | > 100 µM | > 100 µM | 78.3 µM |  |  |  | 
4 | CC(C)c1cccc(C(C)C)c1NC(=O)C(=O)C1CCC2=C(Sc3ccccc3N2)C1=O (stereo not drawn) |  | > 100 µM | 79.7 µM | > 100 µM | > 100 µM | > 100 µM | > 100 µM | > 100 µM | > 100 µM | > 100 µM | > 100 µM | > 100 µM | 76.7 µM | > 100 µM | > 100 µM |  |  | 
5 | COc1cccc(C=O)c1[O-].COc1cccc(C=O)c1[O-].[Zn+2] | > 100 µM | > 100 µM | > 100 µM | > 100 µM | > 100 µM | > 100 µM | > 100 µM | > 100 µM | > 100 µM | > 100 µM | > 100 µM | > 100 µM | > 100 µM | > 100 µM | > 100 µM |  |  | 
6 | NNC(=O)CC(=O)Nc1ccc(S(=O)(=O)c2ccc(NC(=O)CC(=O)NN)cc2)cc1 | > 100 µM | > 100 µM | > 100 µM | > 100 µM | > 100 µM | > 100 µM | > 100 µM | > 100 µM | > 100 µM | > 100 µM | > 100 µM | > 100 µM | > 100 µM |  | > 100 µM | > 100 µM | > 100 µM | > 100 µM
7 | O=[N+]([O-])c1cccc(C2=NN(c3ccccc3)C3c4ccccc4OCC23)c1 (stereo not drawn) | > 100 µM | > 100 µM | > 100 µM | > 100 µM | > 100 µM |  | > 100 µM | > 100 µM | > 100 µM | > 100 µM | > 100 µM | > 100 µM | > 100 µM | > 100 µM | > 100 µM |  |  | 
8 | CO/N=C(/C(=O)Nc1c[n+](CC(=O)[O-])cs1)c1csc(N)n1 | > 100 µM | > 100 µM | > 100 µM | > 100 µM | > 100 µM | > 100 µM | > 100 µM | > 100 µM | > 100 µM | > 100 µM | > 100 µM |  | > 100 µM | > 100 µM |  |  |  | 
9 | O=c1c(C(c2ccc([N+](=O)[O-])cc2)c2c(O)c3ccccc3n(-c3ccccc3)c2=O)c(O)c2ccccc2n1-c1ccccc1 | 86.6 µM | > 100 µM | 63.4 µM | 29.1 µM | 13.4 µM | 38 µM | > 100 µM | 57.1 µM | 34.3 µM |  | 73.9 µM | 37.4 µM | 28 µM | 28.8 µM |  |  |  | 
10 | O=C(CC1(O)C(=O)Nc2ccc([N+](=O)[O-])cc21)c1ccncc1 (stereo not drawn) | 71.5 µM | > 100 µM | > 100 µM | > 100 µM | > 100 µM |  | > 100 µM | 68.6 µM | 73.1 µM | > 100 µM | > 100 µM | > 100 µM | > 100 µM | 66.2 µM | 98.8 µM |  |  | 
11 | CC(C)(CCl)NC(=O)c1cccc(C(=O)NC(C)(C)CCl)n1 | > 100 µM | > 100 µM | > 100 µM | > 100 µM | > 100 µM | > 100 µM | > 100 µM | > 100 µM | > 100 µM | > 100 µM |  | > 100 µM | > 100 µM | > 100 µM | > 100 µM |  |  | 
12 | CC12C3CC4C5CC(C(C53)[C@@H]1NCc1ccccc1)C42 (stereo partly drawn) | > 100 µM | > 100 µM | 75.3 µM | 41.8 µM | > 100 µM | > 100 µM | > 100 µM | > 100 µM | > 100 µM | > 100 µM | > 100 µM | > 100 µM | > 100 µM | > 100 µM | > 100 µM |  |  | 
13 | Cc1cccc(N=Cc2ccc(N(CCC#N)S(=O)(=O)c3ccccc3)cc2C)c1 | > 100 µM | > 100 µM | > 100 µM | > 100 µM | > 100 µM | > 100 µM | > 100 µM | > 100 µM | > 100 µM | > 100 µM | > 100 µM | > 100 µM | > 100 µM | > 100 µM | > 100 µM |  |  | 
14 | O=C1NC(=S)NC(=O)C1=CC1CC1 | > 100 µM | > 100 µM | > 100 µM | > 100 µM | > 100 µM | > 100 µM | > 100 µM | > 100 µM | > 100 µM | > 100 µM | > 100 µM | > 100 µM | > 100 µM | > 100 µM | > 100 µM |  |  | 
15 | CCCCCCCC(=O)OC[C@H](C[As](=O)(O)O)OC(=O)CCCCCCC | 4.07 µM |  | 30 µM | 27.8 µM | 8.8 µM | 26.8 µM |  | 32.4 µM | 28.2 µM | 25.3 µM | 32 µM | 33.1 µM | 18.2 µM | 25.3 µM | 32.3 µM |  |  | 
